This is an account of results in patent US20240270809A1, “ORAL GLP RECEPTOR AGONISTS” (priority 2020, published 2024).

Molecules are shown by their SMILES. Positions of bridges follow the written chain, without caps; N, C: chain ends. Non-standard residues stand in square brackets, D forms with d. Residues, ends and D or L forms follow the SMILES beside them. *: point of attachment. Malonyl(2,2-Me2,histaminyl) = CC(C)(C(=O)NCCc1cnc[nH]1)C(=O)*; Ala(1H-tetrazol-5-yl) = N[C@@H](Cc1nnn[nH]1)C(=O)O; αMeL = CC(C)C[C@](C)(N)C(=O)O; Nle = CCCC[C@H](N)C(=O)O; Aib = CC(C)(N)C(=O)O

Test [1] deals with T1, human GLP2 receptor (Homo sapiens, UniProt O95838).
T1 construct: expressed in transfected cells; host or cells: HEK cells, BacMam virus transduction
T1 sequence (O95838 1-553): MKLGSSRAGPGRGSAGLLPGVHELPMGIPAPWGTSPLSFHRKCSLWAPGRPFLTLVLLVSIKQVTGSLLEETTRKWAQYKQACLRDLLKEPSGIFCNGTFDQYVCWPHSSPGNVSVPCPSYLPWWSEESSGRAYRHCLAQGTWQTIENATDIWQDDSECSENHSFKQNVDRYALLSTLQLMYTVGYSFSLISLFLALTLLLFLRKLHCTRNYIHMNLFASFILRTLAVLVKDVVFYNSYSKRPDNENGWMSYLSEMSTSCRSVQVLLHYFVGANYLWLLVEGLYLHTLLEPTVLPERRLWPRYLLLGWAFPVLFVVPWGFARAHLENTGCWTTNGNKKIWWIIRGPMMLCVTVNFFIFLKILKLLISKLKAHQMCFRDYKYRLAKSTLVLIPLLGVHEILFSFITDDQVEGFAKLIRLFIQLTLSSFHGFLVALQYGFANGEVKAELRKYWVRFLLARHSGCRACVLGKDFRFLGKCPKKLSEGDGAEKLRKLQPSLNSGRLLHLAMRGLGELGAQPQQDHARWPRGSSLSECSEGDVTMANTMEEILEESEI
As to the kind of experiment: cAMP accumulation assay, functional agonism of human GLP2 receptor. It is filed as cell-based. To be noted: HEK cells infected with human GLP2 receptor BacMam virus, HTRF cAMP; for Emax: HEK293, read-out: Human GLP-2R agonist cAMP Emax; for EC50: read-out: Human GLP-2R agonist cAMP pEC50 (converted). The procedure:
(§1) CAMP production upon agonist stimulation of human GLP2 or GLP1 receptor was assessed utilizing HiRange cAMP kit (Cisbio). In brief, HEK cells were infected with either human GLP2 or GLP1 receptor BacMam virus for 24 hours and frozen for later use in the assay. […] Cells were prepared in the assay buffer (HBSS (Lonza) supplemented with 0.5 mM IBMX (Tocris)). After 45 min incubation at 37° C., the reaction was stopped by addition of the HTRF detection reagents in the lysis buffer provided in the kit.

For test [2], the target named is T2, human GLP1 receptor (Homo sapiens, UniProt P43220).
T2 construct: expressed in transfected cells; host or cells: HEK cells, BacMam virus transduction
T2 sequence (P43220 24-463): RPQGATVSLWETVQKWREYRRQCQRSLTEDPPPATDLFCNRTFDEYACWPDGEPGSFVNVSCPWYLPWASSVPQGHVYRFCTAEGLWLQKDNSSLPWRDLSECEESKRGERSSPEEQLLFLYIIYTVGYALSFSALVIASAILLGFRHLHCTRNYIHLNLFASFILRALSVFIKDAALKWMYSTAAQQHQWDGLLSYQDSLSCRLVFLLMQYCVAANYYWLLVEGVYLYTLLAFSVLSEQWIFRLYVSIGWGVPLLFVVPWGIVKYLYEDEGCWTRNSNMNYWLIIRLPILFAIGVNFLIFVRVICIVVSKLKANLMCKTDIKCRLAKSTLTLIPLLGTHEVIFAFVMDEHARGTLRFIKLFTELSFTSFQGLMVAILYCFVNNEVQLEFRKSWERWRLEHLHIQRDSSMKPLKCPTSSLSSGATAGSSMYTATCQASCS
As to the kind of experiment: cAMP accumulation assay, functional agonism of human GLP1 receptor. It is filed as cell-based. As to conditions: HEK cells infected with human GLP1 receptor BacMam virus, HTRF cAMP; for Emax: HEK293, read-out: Human GLP-1R agonist cAMP Emax; for EC50: read-out: Human GLP-1R agonist cAMP pEC50 (converted). How it is done: as §1

For the molecule `CCCC[C@H](NC(=O)[C@H](CCC(=O)O)NC(=O)[C@H](CC(=O)O)NC(=O)[C@H](CO)NC(=O)[C@H](Cc1ccccc1)NC(=O)[C@H](CO)NC(=O)CNC(=O)[C@H](CC(=O)O)NC(=O)C(C)(C)NC(=O)[C@@H](N)Cc1c[nH]cn1)C(=O)N[C@H](Cc1ccccc1)C(=O)N[C@H](C(=O)N[C@H](C(=O)N[C@@H](CC(C)C)C(=O)N[C@@H](CC(=O)O)C(=O)N[C@@H](CC(C)C)C(=O)N[C@@H](CCCCN)C(=O)N[C@@H](C)C(=O)N[C@@H](C)C(=O)N[C@@H](CCCCN)C(=O)N[C@@H](CC(=O)O)C(=O)N[C@@H](Cc1ccccc1)C(=O)N[C@H](C(=O)N[C@H]1CCCCNC(=O)C[C@@H](C(=O)N[C@H](C(=O)N[C@@H](CCCCN)C(=O)N[C@H](C(=O)N[C@H](C(=O)N[C@@H](CC(=O)O)C(N)=O)[C@@H](C)O)[C@@H](C)CC)[C@@H](C)O)NC(=O)[C@H]([C@@H](C)CC)NC(=O)[C@H](CC(C)C)NC(=O)[C@H](Cc2c[nH]c3ccccc23)NC1=O)[C@@H](C)CC)[C@@H](C)CC)[C@@H](C)O` [Example 100] (H-H[Aib]DGSFSDE[Nle][dF]TILDLKAAKDFIKWLIDTKITD-NH2; lactam 24-28; N-terminus and C-terminus assumed), in test [1], the Emax turned out to be 100% and the EC50 was 0.00501 nM. Besides, in test [2], the Emax was 96% and the EC50 was 0.794 nM.

Regarding `CCCC[C@@H]1NC(=O)[C@H](CCC(=O)O)NC(=O)[C@H](CC(=O)O)NC(=O)[C@@H](NC(=O)[C@H](Cc2ccccc2)NC(=O)[C@H](CO)NC(=O)CNC(=O)[C@H](Cc2nn[nH]n2)NC(=O)C(C)(C)C(=O)NCCc2c[nH]cn2)CCC(=O)NCCCC[C@@H](C(=O)N[C@H]2CCC(=O)NCCCC[C@@H](C(=O)N[C@H]3CCC(=O)NCCCC[C@@H](C(=O)N[C@@H](CC(=O)O)C(=O)N[C@@H](Cc4ccccc4)C(=O)N[C@H](C(=O)N[C@H]4CCC(=O)NCCCC[C@@H](C(=O)N[C@H]5CCCCNC(=O)CC[C@@H](C(N)=O)NC(=O)[C@H]([C@@H](C)O)NC(=O)[C@H]([C@@H](C)CC)NC(=O)[C@H](CCCCN)NC5=O)NC(=O)[C@H]([C@@H](C)CC)NC(=O)[C@H](CC(C)C)NC(=O)[C@H](Cc5c[nH]c6ccccc56)NC4=O)[C@@H](C)CC)NC(=O)[C@H](C)NC(=O)[C@H](C)NC3=O)NC(=O)[C@H](CC(=O)O)NC(=O)[C@H](CC(C)C)NC(=O)[C@H]([C@@H](C)CC)NC2=O)NC1=O` [Example 80], in test [1], the Emax worked out at 99.9% and the EC50 is 0.2 nM. In test [2], the Emax was 64.1% and the EC50 is 3.98 nM.

On to `CCCC[C@H](NC(=O)[C@H](CCC(=O)O)NC(=O)[C@@H]1CC(=O)NCCCC[C@H](NC(=O)[C@H](CC(=O)O)NC(=O)C(C)(C)NC(=O)[C@@H](N)Cc2c[nH]cn2)C(=O)N[C@@H](CO)C(=O)N[C@@H](Cc2ccccc2)C(=O)N[C@@H](CO)C(=O)N1)C(=O)N[C@H](Cc1ccccc1)C(=O)N[C@H]1CCCCNC(=O)C[C@@H](C(=O)N[C@@H](CCCCN)C(=O)N[C@@H](C)C(=O)N[C@@H](C)C(=O)NC(C)(C)C(=O)N[C@@H](CC(=O)O)C(=O)N[C@@H](Cc2ccccc2)C(=O)N[C@H](C(=O)N[C@H]2CCC(=O)NCCCC[C@@H](C(=O)N[C@H]3CCC(=O)NCCCC[C@@H](C(N)=O)NC(=O)[C@H]([C@@H](C)O)NC(=O)[C@H]([C@@H](C)CC)NC(=O)[C@H](CCCCN)NC3=O)NC(=O)[C@H]([C@@H](C)CC)NC(=O)[C@H](CC(C)C)NC(=O)[C@H](Cc3c[nH]c4ccccc34)NC2=O)[C@@H](C)CC)NC(=O)[C@H](CC(=O)O)NC(=O)[C@H](CC(C)C)NC(=O)[C@H]([C@@H](C)CC)NC1=O` [Example 47] (H-H[Aib]DKSFSDE[Nle][dF]KILDDKAA[Aib]DFIEWLIKEKITK-NH2; lactam 4-8, 12-16, 24-28, 29-33; N-terminus and C-terminus assumed), for which, in test [1], the Emax was found to be 104% and the EC50 is 0.158 nM. For the same molecule, in test [2], the Emax came out at 93.6% and the EC50 is 0.316 nM.

With `CCCC[C@@H]1NC(=O)[C@H](CCC(=O)O)NC(=O)[C@@H](NC(=O)[C@H](CO)NC(=O)[C@H](Cc2ccccc2)NC(=O)[C@H](CO)NC(=O)CNC(=O)[C@H](Cc2nn[nH]n2)NC(=O)C(C)(C)C(=O)NCCc2c[nH]cn2)CCCCNC(=O)C[C@@H](C(=O)N[C@H](C(=O)N[C@@H](CC(C)C)C(=O)N[C@@H](CC(=O)O)C(=O)N[C@@H](CC(C)C)C(=O)N[C@@H](CCCCN)C(=O)N[C@@H](C)C(=O)N[C@@H](C)C(=O)NC(C)(C)C(=O)N[C@@H](CC(=O)O)C(=O)N[C@@H](Cc2ccccc2)C(=O)N[C@H](C(=O)N[C@@H](CC(N)=O)C(=O)N[C@@H](Cc2c[nH]c3ccccc23)C(=O)N[C@@H](CC(C)C)C(=O)N[C@H](C(=O)N[C@@H](CCC(N)=O)C(=O)N[C@H](C(=O)N[C@H]2CCC(=O)NCCCC[C@@H](C(N)=O)NC(=O)[C@H]([C@@H](C)O)NC(=O)[C@H]([C@@H](C)CC)NC2=O)[C@@H](C)O)[C@@H](C)CC)[C@@H](C)CC)[C@@H](C)CC)NC(=O)[C@@H](Cc2ccccc2)NC1=O` [Example 108] ({Malonyl(2,2-Me2,histaminyl)}-[Ala(1H-tetrazol-5-yl)]GSFSKE[Nle][dF]DILDLKAA[Aib]DFINWLIQTEITK-NH2; lactam 6-10, 28-31; C-terminus assumed), in test [1], the maximal effect (Emax) was 104% and the EC50 was 0.501 nM. Further, in test [2], the Emax was 92.1% and the EC50 was 3.98 nM.

As for `CCCC[C@H](NC(=O)[C@H](CCC(=O)O)NC(=O)[C@@H]1CC(=O)NCCCC[C@H](NC(=O)[C@H](CCC(=O)O)NC(=O)C(C)(C)NC(=O)[C@@H](N)Cc2c[nH]cn2)C(=O)N[C@@H](CO)C(=O)N[C@@H](Cc2ccccc2)C(=O)N[C@@H](CO)C(=O)N1)C(=O)N[C@H](Cc1ccccc1)C(=O)N[C@H](C(=O)N[C@@](C)(CC(C)C)C(=O)N[C@@H](CC(C)C)C(=O)N[C@@H](CC(=O)O)C(=O)N[C@H]1CCC(=O)NCCCC[C@@H](C(=O)N[C@@H](CC(=O)O)C(=O)N[C@@H](Cc2ccccc2)C(=O)N[C@H](C(=O)N[C@H]2CCC(=O)NCCCC[C@@H](C(=O)N[C@H](C(=O)N[C@@H](CCCCN)C(N)=O)[C@@H](C)O)NC(=O)[C@H]([C@@H](C)CC)NC(=O)[C@H](CC(C)C)NC(=O)[C@H](Cc3c[nH]c4ccccc34)NC2=O)[C@@H](C)CC)NC(=O)[C@H](C)NC(=O)[C@H](C)NC(=O)[C@H](CCCCN)NC1=O)[C@@H](C)O` [Example 28] (H-H[Aib]EKSFSDE[Nle][dF]T[αMeL]LDEKAAKDFIEWLIKTK-NH2; lactam 4-8, 16-20, 24-28 (inferred); C-terminus assumed), in test [1], the Emax was 99.6% and the EC50 is 0.316 nM. Also, in test [2], the maximal response (Emax) was determined as 96% and the EC50 is 0.0794 nM.
